What all share (assay type): biochemical
For assay [1], the system named is T1, maltase (rat intestinal α-glucosidase).
T1 construct: gene Mgam; crude phosphate-buffer supernatant of rat intestinal acetone powder (Sigma-Aldrich, labelled EC 3.2.1.48), not purified; maltose-hydrolysing activity of mixed brush-border alpha-glucosidases
The experiment in a line: maltose hydrolysis, released glucose by HPAEC-PAD; Lineweaver-Burk plot. As to conditions: phosphate buffer 100 mM pH 6.9, 37 °C; crude intestinal extract.

For assay [2], the target named is T1, maltase (rat intestinal α-glucosidase). The experiment in a line: maltose hydrolysis, released glucose by HPAEC-PAD. To be noted: 10 mM maltose, phosphate buffer 100 mM pH 6.9, 37 °C, 30 min; crude intestinal extract. The text has this:
maltose hydrolysis, released glucose by HPAEC-PAD on maltase (rat intestinal α-glucosidase)

Assay [3] has the same target. Briefly: maltose hydrolysis, released glucose by HPAEC-PAD; Dixon plot. To be noted: maltose 1.25-5 mM, pH 6.9, 37 °C; competitive; crude intestinal extract. An excerpt:
maltose hydrolysis, released glucose by HPAEC-PAD; Dixon plot on maltase (rat intestinal α-glucosidase)

For orientation: Km means the substrate concentration at which the rate is half of its maximum. What is called IC50 is the concentration needed to halve the response being measured. As usually defined, the Ki is a measure of affinity in units of concentration, obtained from inhibition or displacement.

The structures appear in SMILES notation. Converted amounts (≈) assume the structure as drawn.

Take `OC[C@H]1O[C@H](O[C@H]2[C@H](O)[C@@H](O)C(O)O[C@@H]2CO)[C@H](O)[C@@H](O)[C@@H]1O` (stereo partly drawn) [maltose]: the Km in assay [1] worked out at 5.8 mM. For `C[C@H]1O[C@H](O[C@H]2[C@H](O)[C@@H](O)[C@@H](O[C@H]3[C@H](O)[C@@H](O)C(O)O[C@@H]3CO)O[C@@H]2CO)[C@H](O)[C@@H](O)[C@@H]1N[C@H]1C=C(CO)[C@@H](O)[C@H](O)[C@H]1O` (stereo partly drawn) [Acarbose], in assay [2], the half-maximal inhibitory concentration (IC50) was 0.15 ± 0.02 µg/mL (≈ 0.232 µM). Further, in assay [3], the inhibition constant Ki was 0.07 µg/mL (≈ 0.108 µM).

The record behind these values is paper PMC8057513, “Comparison of edible brown algae extracts for the inhibition of intestinal carbohydrate digestive enzymes involved in glucose release from the diet” (Journal of Nutritional Science, 2021).
